What all share (assay type): cell-based
The subject of data set [1] is Trypanosoma avium trypomastigotes. The experiment in a line: In vitro antitrypanosomal bioassay, trypomastigote counts (Probit LC50/LC95). The following applies: T. avium. The protocol:
(§1) In this study, 75 μl of Locke's nematode saline (L.N.S.) solution with approximately 1.0×10^5 trypomastigotes/ml of each organism were placed in 15 wells of a cell culture plate. For T. mega, T. conorhini and T. avium, stock concentrations of eryngial (1, 2, 3 and 4 mg/ml) with 0.04% (w/v) Triton X-100 were prepared in L.N.S. Triton X-100 acted as an emulsifier for eryngial. Triplicate samples of each eryngial concentration were prepared by adding 75 μl of the stock to the wells with trypomastigotes of each species. The number of trypanosomes in each well therefore approximated 5×10^4/ml, while final concentrations of eryngial in the wells were 0.5, 1.0, 1.5, and 2.0 mg/ml, respectively. Each sample also had 0.02% Trition X-100. The control samples had no eryngial. The number of trypomastigotes that were present in 20 μl sub-samples of each well was determined using a hemacytometer at 0, 24 and 48 hr. A count of the trypanosomes in each grid was recorded and the average number of organisms per milliliter was determined. The above procedure was repeated to determine the effect of eryngial on T. rangeli. However, the final concentration of eryngial, the test compound, ranged from 0.15 to 0.9 mg/ml.

For data set [2], the system named is Trypanosoma mega trypomastigotes. The description is as above. The following applies: T. mega; for 24 hr LC95 ± 95% confidence intervals: 24 hr in vitro. The protocol: as §1
Data set [3] concerns Trypanosoma rangeli trypomastigotes. The data set is described as above. To be noted: T. rangeli; for 24 hr LC95 ± 95% confidence intervals: 24 hr in vitro, 0.02% Triton X-100; for 48 hr LC95 ± 95% confidence intervals: 48 hr in vitro. Here is the method: as §1
The next data set relates to Pseudomonas aeruginosa. Description: Antibacterial MIC, 96 well broth dilution. To be noted: P. aeruginosa (gram-negative), 24 hr, 0.02% Triton X-100, highest concentration tested 10 mg/ml. The protocol:
(§2) Bacterial cultures were obtained from the American Type Culture Collection (ATCC), except for Streptococcus pyogenes, which was started from a Difco Bactrol disc. The other organisms were Enterococcus faecalis, Staphylococcus aureus, Escherichia coli, Salmonella typhimurium and Pseudomonas aeruginosa. Cultures were grown in Luria-Bertani (LB) broth. Fungi were obtained from Carolina Biological Supply Company (Aspergillus niger, Candida albicans and Cryptococcus neoformans); Presque Isle Cultures, Erie Pa. (Microsporum gypseum); or from ATCC (Penicillium marneffei). Fungal cultures were maintained in Sabouraud dextrose broth (SDB) or agar (SDA). All media components came from Difco.
(§3) Tests were done in flat-bottomed 96 well cell culture plates (Costar). All samples were done in duplicate. Eryngial was suspended in culture medium plus 0.04% Triton-X to make a 2% (20 mg/ml) suspension, which was passed through a 0.22 μm filter to make a uniform emulsion. Serial doubling dilutions of eryngial in culture medium plus 0.04% Triton-X were prepared, and 75 μl was added to each well. 75 μl of cell or spore suspensions in culture medium also were added to each well. The final concentration of Triton-X was 0.02%, and the final concentration of eryngial was 1% (10 mg/ml) at the highest concentration tested.
(§4) Overnight bacterial cultures in LB medium were diluted into fresh LB to an OD600 of 0.02 to 0.03, and then diluted 1000-fold again in LB. […] Blank wells for each concentration of eryngial were prepared with plain culture medium added.
(§5) The 96 well plates were incubated at 37° for 24 hr (in a candle jar for S. pyogenes), and the OD630 was read on an EL800 universal microplate reader (Bio-Tek Instruments). Readings from duplicate wells were averaged, and readings from duplicate blank wells for each concentration of eryngial were subtracted to generate the final values. The minimum inhibitory concentration (MIC, μg/ml) was defined as the well with the highest dilution of eryngial in which no growth was observed.
For orientation: Broth dilution looks for growth in wells or tubes with falling amounts of substance.

The next data set concerns Escherichia coli. The experiment in a line: Antibacterial MIC, 96 well broth dilution. The following applies: E. coli (gram-negative), 24 hr, 0.02% Triton X-100, highest concentration tested 10 mg/ml. The protocol:
as §2, §3, §4, §5

The next data set relates to Salmonella typhimurium. Description: Antibacterial MIC, 96 well broth dilution. To be noted: S. typhimurium (gram-negative), 24 hr, 0.02% Triton X-100, highest concentration tested 10 mg/ml. The protocol:
as §2, §3, §4, §5

Setting [4] is: 48 hr in vitro, listed as eryngial.

SMILES strings stand for the structures.

For the molecule `CCCCCCCCC/C=C/C=O` [Eryngial, trans-2-dodecenal], the “24 hr LC50 ± 95% confidence intervals” value in data set [1] (24 hr in vitro) was 1.19 (0.96-1.40) mg/ml. Besides, the “24 hr LC95 ± 95% confidence intervals” value in data set [1] (24 hr in vitro) is 3.12 (2.57-4.16) mg/ml; in data set [1] (24 hr in vitro, listed as eryngial), 3.12 mg/mL; in data set [2] it was 2.85 (2.20-4.40) mg/ml; in data set [2] (listed as eryngial), 2.85 mg/mL; in data set [3], 0.45 (0.38-0.55) mg/ml; in data set [3] (listed as eryngial) it was 0.45 mg/mL. The results for the “48 hr LC50 ± 95% confidence intervals” value in data set [1] (48 hr in vitro) and in data set [2] (48 hr in vitro) were 0.76 (0.63-0.87) mg/ml and 0.50 (0.39-0.58) mg/ml, respectively. The “48 hr LC95 ± 95% confidence intervals” value in data set [1] (48 hr in vitro) is 2.31 (1.87-3.26) mg/ml; in data set [1] (setting [4]), 1.02 mg/mL; in data set [2] (48 hr in vitro), 1.14 (0.95-1.56) mg/ml; in data set [2] (setting [4]) it was 2.31 mg/mL; in data set [3], 0.31 (0.26-0.43) mg/ml; in data set [3] (listed as eryngial), 0.31 mg/mL. For the same molecule, the inhibited by eryngial result in the data set with Pseudomonas aeruginosa, with Escherichia coli and in the data set with Salmonella typhimurium was “none” in each case.

The record behind these values is patent US9545386B2, “Methods of treating infectious diseases” (SLIPPERY ROCK UNIVERSITY FOUNDATION, INC., priority 2007, dated 2017).
